Laboratory results: EP3263567A1, “CARBOXAMIDE-SUBSTITUTED PYRAZOLES AND TRI(HETERO)ARYL-PYRAZOLES FOR USE IN METHODS OF TREATING AND / OR PREVENTING CARDIOVASCULAR DISEASES AND / OR COMORBIDITIES THEREOF” (AiCuris Anti-infective Cures GmbH, priority 2016, dated 2018)

What was measured:
[1] = 10-day dose-range-finding study in dogs; assay type: in vivo
Experimental: For the dog study, single dose data are available at 3, 30 and 100 mg/kg and repeated dose data (10 days of treatment) are available at 30, 100 and 2 x 50 mg/kg. At a single dose of 30 mg/kg, no further increase in exposure or Cmax is apparent. In the 10-day DRF study (LPT Study No. 31586) it was investigated whether after multiple dosing any accumulation would be apparent and therefore dose levels of 30 and 100 mg/kg were selected in this study. In addition, the highest daily dose (i.e. 100 mg/kg) was also administered as 50 mg/kg twice daily (8-h interval) to investigate possible beneficial effects of BID dosing on overall exposure.

pKa of compound A = assay type: physicochemical
[2] = Stability of compound A in solution; assay type: physicochemical
Experimental: The compound stock solutions were stored at 19°C to 30°C (room temperature). Test solutions were prepared freshly every day. Test solutions were prepared shortly before experimentation.
The Compound A stock solutions were prepared freshly every day of experimentation. Application of Compound A to the CHO cells was completed within one day. During this period, there was no observation indicating any instability of Compound A solved in vehicle. The effects observed on Nav1.5, Kv1.5, Cav1.2 and HCN4 channels of the Compound A dose formulations analyzed remained stable over several hours at room temperature.

Nav1.5 = target: T1, Nav1.5 (Homo sapiens, UniProt Q14524); assay: Whole-cell patch-clamp, Nav1.5 currents in stably transfected CHO cells; assay type: cell-based
T1 construct: expressed in transfected cells; host or cells: CHO (ATCC CCL-61), stably transfected; selection with Geneticin and Puromycin
Experimental: [drawing 92] i.e. 4-[5-[3-Chloro-5-(trifluoromethoxy) phenyl]-1-(pyridin-3-yl)-1H-pyrazol-3-yl]-5,6-dihydro-7H-pyrrolo[3,4-d]pyrimidin-7-one, was tested for its effects on human Nav1.5, Cav1.2, Kv1.5, and HCN4 currents recorded from stably transfected CHO cells. The effect of four concentrations of this compound on these currents was investigated.
The whole-cell patch-clamp technique was used to investigate the effect of Compound A on the currents of Nav1.5, Kv1.5, Cav1.2 and HCN4 channels, expressed in CHO cells (ATCC, CCL-61). Compound A was tested at concentrations of 200 nM, 600 nM, 2000 nM and 6000 nM. For all ion channels 0.1% DMSO was used as vehicle and ZD7288 as suitable blockers were applied to assure accuracy of the method. The selection antibiotics can be dervied from the Table below:
Concentrations of 200 nM, 600 nM, 2000 nM and 6000 nM of Compound A were tested. […]
The 35 mm culture dishes upon which cells were seeded at a density allowing single cells to be recorded were placed on the dish holder of the microscope and continuously perfused (at approximately 1 mL/min) with the bath solution described in section 4.7. […]
As soon as a stable seal could be established outward tail currents were measured upon pulses described in the Table below: […]
Values in Ampere (A) of the peak amplitudes of outward tail currents were generated for each voltage step. […] The recorded current amplitudes at the steady state level of current inhibition were compared to those from control conditions measured in the pre-treatment phase of the same cell. The amount of current block was calculated as percentage of control. To determine whether the observed current inhibition was due to Compound A-interaction with the respective ion channel or due to current rundown, these residual currents were compared to those measured in vehicle treated cells. Data from at least two individual experiments were collected and the corresponding mean values and standard deviations were calculated. […]

T1 sequence (Q14524 whole entry): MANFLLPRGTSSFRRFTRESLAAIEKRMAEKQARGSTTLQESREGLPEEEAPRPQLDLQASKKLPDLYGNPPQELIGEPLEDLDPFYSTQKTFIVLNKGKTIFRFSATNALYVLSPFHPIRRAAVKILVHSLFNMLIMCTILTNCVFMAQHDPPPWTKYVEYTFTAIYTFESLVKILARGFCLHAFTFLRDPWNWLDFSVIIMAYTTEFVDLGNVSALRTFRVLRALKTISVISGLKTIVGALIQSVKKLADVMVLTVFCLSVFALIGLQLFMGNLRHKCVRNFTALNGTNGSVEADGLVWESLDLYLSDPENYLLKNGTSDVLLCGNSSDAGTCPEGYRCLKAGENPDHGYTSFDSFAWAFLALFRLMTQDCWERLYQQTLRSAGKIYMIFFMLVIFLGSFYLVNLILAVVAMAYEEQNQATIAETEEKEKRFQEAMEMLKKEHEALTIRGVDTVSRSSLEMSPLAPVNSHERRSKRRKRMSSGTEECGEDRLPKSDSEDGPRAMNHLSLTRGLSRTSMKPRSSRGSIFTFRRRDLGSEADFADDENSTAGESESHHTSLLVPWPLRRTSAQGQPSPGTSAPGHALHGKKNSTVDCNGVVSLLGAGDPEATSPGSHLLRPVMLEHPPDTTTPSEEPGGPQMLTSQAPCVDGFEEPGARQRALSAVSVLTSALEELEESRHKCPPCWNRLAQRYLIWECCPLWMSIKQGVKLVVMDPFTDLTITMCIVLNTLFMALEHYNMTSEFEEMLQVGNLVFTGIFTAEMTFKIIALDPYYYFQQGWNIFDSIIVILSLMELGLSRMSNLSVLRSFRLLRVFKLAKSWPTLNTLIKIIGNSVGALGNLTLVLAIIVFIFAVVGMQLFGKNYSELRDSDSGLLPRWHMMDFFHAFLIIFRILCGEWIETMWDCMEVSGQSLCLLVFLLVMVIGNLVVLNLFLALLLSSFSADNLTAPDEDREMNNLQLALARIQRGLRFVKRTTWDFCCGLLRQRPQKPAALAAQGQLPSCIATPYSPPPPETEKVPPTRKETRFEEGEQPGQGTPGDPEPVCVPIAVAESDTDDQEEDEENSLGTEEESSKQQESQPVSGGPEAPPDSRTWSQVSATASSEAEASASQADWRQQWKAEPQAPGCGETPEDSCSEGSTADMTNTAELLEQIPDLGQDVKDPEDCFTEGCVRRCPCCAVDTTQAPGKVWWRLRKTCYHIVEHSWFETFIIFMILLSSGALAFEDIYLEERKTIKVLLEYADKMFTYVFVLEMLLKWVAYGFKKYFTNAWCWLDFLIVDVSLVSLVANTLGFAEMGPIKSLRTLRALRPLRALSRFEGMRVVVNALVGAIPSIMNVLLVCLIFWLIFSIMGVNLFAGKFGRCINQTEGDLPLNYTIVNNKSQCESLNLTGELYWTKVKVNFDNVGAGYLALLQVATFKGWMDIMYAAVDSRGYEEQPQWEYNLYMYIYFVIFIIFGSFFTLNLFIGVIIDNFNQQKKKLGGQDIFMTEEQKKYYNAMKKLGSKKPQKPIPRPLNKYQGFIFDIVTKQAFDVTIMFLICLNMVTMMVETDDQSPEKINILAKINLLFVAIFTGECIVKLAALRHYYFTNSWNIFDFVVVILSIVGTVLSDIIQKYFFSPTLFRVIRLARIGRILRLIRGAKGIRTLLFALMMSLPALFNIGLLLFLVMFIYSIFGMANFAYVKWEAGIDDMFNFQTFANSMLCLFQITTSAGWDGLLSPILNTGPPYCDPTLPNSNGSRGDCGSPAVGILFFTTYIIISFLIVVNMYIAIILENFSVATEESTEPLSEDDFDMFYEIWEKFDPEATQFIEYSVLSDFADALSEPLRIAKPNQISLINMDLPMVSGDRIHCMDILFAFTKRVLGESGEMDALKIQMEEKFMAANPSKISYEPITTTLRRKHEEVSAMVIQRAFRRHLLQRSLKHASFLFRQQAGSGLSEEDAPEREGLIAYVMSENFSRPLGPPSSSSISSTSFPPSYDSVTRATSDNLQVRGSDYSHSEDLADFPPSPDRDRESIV

In the case of O=C1NCc2c1ncnc2-c1cc(-c2cc(Cl)cc(OC(F)(F)F)c2)n(-c2cccnc2)n1 [Compound A, 4-[5-[3-Chloro-5-(trifluoromethoxy)phenyl]-1-(pyridin-3-yl)-1H-pyrazol-3-yl]-5,6-dihydro-7H-pyrrolo[3,4-d]pyrimidin-7-one], the “exposure on split dosing” value ([1]; 100 mg/kg as 2 x 50 mg/kg 8 hours apart) is reported as “small increase in exposure”, the “test item related findings” value ([1]; 30, 100 and 2 x 50 mg/kg, 10 days) is reported as “No clear and consistent test item related findings” and the “exposure on dose increase” value ([1]; 30 to 100 mg/kg, 10 days) is reported as “did not reveal a further increase in exposure”. The pKa (pKa of compound A) was 2.3, the “stability in aqueous and physiological fluids and organic solvents” value [2] was “stable” and the “stability of dose formulations in bath solution” value ([2]; several hours at room temperature) was “no observations indicating any instability”. The “reduction of the current amplitude (Nav1.5, fast inactivated state)” value (Nav1.5; at ≤ 6 µM) was “more than 30%”, the IC50 (Nav1.5; highest concentration tested 6,000 nM, read-out: IC50 (Nav1.5, fast inactivated state)) was greater than 6 µM and the “interaction with ion channels of Nav” value (Nav1.5; summary statement) was “do not interact with other ion channels of Nav, Kav, and Cav substantially”.
